Measurements reported in ChEMBL document CHEMBL1667821, “Synthesis and galectin-binding activities of mercaptododecyl glycosides containing a terminal β-galactosyl group” (Bioorg Med Chem Lett, 2011).
Values joined by “and” are separate entries in the source; they are usually repeats but may differ in a detail not shown here. Equal values may be shown once. Active and inactive are the calls of the source. The rule behind the calls is not given here.

Experiments:
[1] = target: Galectin-1 (Homo sapiens) (UniProt P09382); assay: Binding affinity to human galectin-1 by surface plasmon resonance method
Chain of Galectin-1 (Homo sapiens) (P09382 whole entry): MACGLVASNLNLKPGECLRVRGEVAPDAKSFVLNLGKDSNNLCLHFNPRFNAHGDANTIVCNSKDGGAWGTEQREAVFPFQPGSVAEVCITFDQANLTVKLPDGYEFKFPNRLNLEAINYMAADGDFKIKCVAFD

[2] = target: T1, Galectin-2 (Homo sapiens) (UniProt P05162); assay: Binding affinity to human galectin-2 by surface plasmon resonance method
T1 sequence (whole entry): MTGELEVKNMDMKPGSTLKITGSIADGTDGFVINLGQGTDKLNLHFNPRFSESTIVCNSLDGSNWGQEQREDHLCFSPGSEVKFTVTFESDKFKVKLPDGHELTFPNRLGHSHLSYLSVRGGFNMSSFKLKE

Galectin-3 = Galectin-3 (Homo sapiens, UniProt P17931); assay: Binding affinity to human galectin-3 by surface plasmon resonance method
Chain of Galectin-3 (P17931 whole entry): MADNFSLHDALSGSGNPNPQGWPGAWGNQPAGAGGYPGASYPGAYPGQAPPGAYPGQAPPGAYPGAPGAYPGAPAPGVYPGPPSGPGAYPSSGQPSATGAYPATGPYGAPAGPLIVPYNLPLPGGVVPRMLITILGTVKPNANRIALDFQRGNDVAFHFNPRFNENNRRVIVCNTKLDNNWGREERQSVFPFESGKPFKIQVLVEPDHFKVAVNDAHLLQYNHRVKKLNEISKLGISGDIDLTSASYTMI

[3] = target: T2, Galectin-4 (Homo sapiens) (UniProt P56470); assay: Binding affinity to human galectin-4 by surface plasmon resonance method
T2 sequence (whole entry): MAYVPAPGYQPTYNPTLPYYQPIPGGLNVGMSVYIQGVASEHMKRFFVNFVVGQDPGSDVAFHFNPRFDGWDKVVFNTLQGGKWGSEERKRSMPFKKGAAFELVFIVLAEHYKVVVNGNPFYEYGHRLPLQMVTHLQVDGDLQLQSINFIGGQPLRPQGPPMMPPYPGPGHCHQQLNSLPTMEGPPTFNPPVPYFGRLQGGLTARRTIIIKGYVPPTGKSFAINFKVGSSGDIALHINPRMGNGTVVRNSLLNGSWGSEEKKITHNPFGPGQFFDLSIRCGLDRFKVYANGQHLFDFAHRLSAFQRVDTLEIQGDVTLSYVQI

[4] = target: Galectin-7 (Homo sapiens) (UniProt P47929); assay: Binding affinity to human galectin-7 by surface plasmon resonance method
Chain of Galectin-7 (Homo sapiens) (P47929 whole entry): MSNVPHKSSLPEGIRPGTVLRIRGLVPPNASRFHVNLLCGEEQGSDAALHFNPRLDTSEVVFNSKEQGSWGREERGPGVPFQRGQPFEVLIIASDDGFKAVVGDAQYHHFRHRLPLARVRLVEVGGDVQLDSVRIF

[5] = target: T3, Galectin-8 (Homo sapiens) (UniProt O00214); assay: Binding affinity to human galectin-8 by surface plasmon resonance method
T3 sequence (whole entry): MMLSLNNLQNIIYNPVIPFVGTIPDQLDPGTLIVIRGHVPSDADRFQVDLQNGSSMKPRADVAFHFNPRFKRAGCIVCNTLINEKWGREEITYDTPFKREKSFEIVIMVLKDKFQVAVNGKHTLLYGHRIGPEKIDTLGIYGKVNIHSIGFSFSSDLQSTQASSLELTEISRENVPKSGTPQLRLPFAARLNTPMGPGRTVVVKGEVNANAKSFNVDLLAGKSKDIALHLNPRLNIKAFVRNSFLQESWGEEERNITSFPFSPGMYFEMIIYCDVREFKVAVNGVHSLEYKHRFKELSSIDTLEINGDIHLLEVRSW

[6] = target: T2, Galectin-4 (Homo sapiens); assay: (§1) Binding affinity to human galectin-4 component 1 by surface plasmon resonance method
Galectin-4 [7] = target: T4, Galectin-4 (Homo sapiens, UniProt P56470); assay: as §1
T4 sequence (P56470 whole entry): T2 sequence (whole entry)

[8] = target: T2, Galectin-4 (Homo sapiens); assay: (§2) Binding affinity to human galectin-4 component 2 by surface plasmon resonance method
Galectin-4 [9] = target: T4, Galectin-4; assay: as §2
[10] = target: T3, Galectin-8 (Homo sapiens); assay: (§3) Binding affinity to human galectin-8 component 1 by surface plasmon resonance method
Galectin-8 [11] = target: T5, Galectin-8 (Homo sapiens, UniProt O00214); assay: as §3
T5 sequence (O00214 whole entry): T3 sequence (whole entry)

[12] = target: T3, Galectin-8 (Homo sapiens); assay: (§4) Binding affinity to human galectin-8 component 2 by surface plasmon resonance method
Galectin-8 [13] = target: T5, Galectin-8; assay: as §4

Activity [1]	Activity [2]	Activity (Galectin-3)	Ka (Galectin-3)	Kd (Galectin-3)	Kdiss (Galectin-3)	Activity [3]	Activity [4]	Activity [5]	Ka [6]	Kdiss [6]	Kd (Galectin-4 [7])	Ka [8]	Kdiss [8]	Kd (Galectin-4 [9])	Ka [10]	Kdiss [10]	Kd (Galectin-8 [11])	Ka [12]	Kdiss [12]	Structure (SMILES)	further results
4.1 a.u.	inactive	167 a.u.	5670 M⁻¹ s⁻¹	2.2 µM	1.25 ×10⁻² /s	462 a.u.	0.8 a.u.	163 a.u.	2330 M⁻¹ s⁻¹	2.92 ×10⁻³ /s	1.26 µM	111000 M⁻¹ s⁻¹	8.6 ×10⁻² /s	0.78 µM and 0.777 µM	9370 M⁻¹ s⁻¹	2.18 ×10⁻⁶ /s	0.00023 µM and 0.000233 µM	48700 M⁻¹ s⁻¹	2.39 ×10⁻³ /s	CC(=O)N[C@H]1[C@@H](OCCCCCCCCCCCCS)O[C@H](CO)[C@@H](O[C@@H]2O[C@H](CO)[C@H](O)[C@H](O)[C@H]2O)[C@@H]1O	–
9.5 a.u.	2 a.u.	82.3 a.u.	1760 M⁻¹ s⁻¹	1.06 µM	1.86 ×10⁻³ /s	457 a.u.	4.2 a.u.	368 a.u.	13000 M⁻¹ s⁻¹	1.76 ×10⁻³ /s	0.14 µM and 0.136 µM	172000 M⁻¹ s⁻¹	1.45 ×10⁻² /s	0.085 µM and 0.0847 µM	8970 M⁻¹ s⁻¹	1.39 ×10⁻⁵ /s	0.0016 µM and 0.00155 µM	9.61e+06 M⁻¹ s⁻¹	2.37 ×10⁻¹ /s	OC[C@H]1OC(O[C@H]2[C@H](O)[C@@H](O)[C@H](OCCCCCCCCCCCCS)O[C@@H]2CO)[C@H](O)[C@@H](O)[C@H]1O (some centres undefined)	Kd (Galectin-8 [13]): 0.025 µM and 0.0246 µM
17.8 a.u.	11 a.u.	135 a.u.	1900 M⁻¹ s⁻¹	1.43 µM	2.72 ×10⁻³ /s	345 a.u.	inactive	74.5 a.u.	4630 M⁻¹ s⁻¹	1.41 ×10⁻³ /s	0.3 µM and 0.304 µM	65200 M⁻¹ s⁻¹	3.78 ×10⁻³ /s	0.058 µM	18600 M⁻¹ s⁻¹	6.85 ×10⁻² /s	0.037 µM and 0.0369 µM	35500 M⁻¹ s⁻¹	1.11 ×10⁻¹ /s	OC[C@H]1O[C@@H](O[C@H]2[C@H](O)C[C@@H](OCCCCCCCCCCCCS)O[C@@H]2CO)[C@H](O)[C@@H](O)[C@H]1O	Kd (Galectin-8 [13]): 0.031 µM and 0.0313 µM

More lines, now with the values behind:

Structure (SMILES)	Activity [1]	Activity [2]	Activity (Galectin-3)	Ka (Galectin-3)	Kd (Galectin-3)	Kdiss (Galectin-3)	Activity [3]	Activity [4]	Activity [5]	Ka [6]	Kdiss [6]	Kd (Galectin-4 [7])	Ka [8]	Kdiss [8]	Kd (Galectin-4 [9])	Ka [10]	Kdiss [10]	Kd (Galectin-8 [11])	Ka [12]	Kdiss [12]	further results
OC[C@H]1O[C@@H](OCCCCCCCCCCCCS)[C@H](O)[C@@H](O)[C@H]1O	3.4 a.u.	3.8 a.u.	inactive	–	–	–	Active	inactive	34.1 a.u.	–	–	–	–	–	–	–	–	–	–	–	–
OC[C@H]1O[C@@H](O[C@H]2C=C[C@@H](OCCCCCCCCCCCCS)O[C@@H]2CO)[C@H](O)[C@@H](O)[C@H]1O	25.1 a.u.	13.4 a.u.	5.1 a.u.	–	–	–	Active	inactive	Active	–	–	–	–	–	–	–	–	–	–	–	–
